The record followed here is PubChem BioAssay AID489040 (Sanford-Burnham Center for Chemical Genomics, 2010).

Usually EC50 stands for the concentration that produces a half-maximal response.

Each structure is given as a SMILES string. Calls of active or inactive are those of the source.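 How the source made its calls: active means mean half-maximal activating concentration from the dose-response fit at or below a set limit; inactive means the rest.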

The target in this test is CHO-XBP1 luciferase reporter, IRE1-XBP1 UPR activation. Kind of test: activators of IRE1-XBP1 UPR arm, dose response, counter-screen for apoptotic UPR arm activators, CHO-XBP1 cells, luminescence (AID 489040).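 Further: reporter read after six hours of compound exposure.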 Background: A counterscreen serves to expose hits that act by an unwanted route or on another target.
For the molecule `COc1ccccc1NC(=O)c1cnc(SCC(=O)NCC2CCCO2)n(C)c1=O` (stereo not drawn), the EC50 was > 80 µM (inactive).

With `Cc1cc(C(=O)CCl)c(C)n1CCc1ccc(F)cc1`, the EC50 is > 80 µM (inactive).

In the case of `Oc1ccc(-c2nc(-c3ccc(O)c(O)c3)cs2)cc1`, the EC50 was > 80 µM (inactive).

Regarding `CCc1nnc(NC(=O)c2nc(S(=O)(=O)Cc3ccc(C)cc3)ncc2Cl)s1`, the EC50 was > 80 µM (inactive).

Turning to `COc1ccc(-n2nc(C#N)c(Cl)cc2=O)cc1`, the EC50 was > 80 µM (inactive).

Regarding `Cc1cccc(Cn2cc(/C=C/[N+](=O)[O-])c3ccccc32)c1`, the EC50 was > 80 µM (inactive).

Consider `CC1CCC/C=C/C2CC(O)CC2C(O)/C=C/C(=O)O1` (stereo not drawn), for which the EC50 is > 80 µM (inactive).

Consider `CCOC(=O)c1c(CSC(=N)N)n(-c2ccc(C)cc2)c2cc(Br)c(OC(C)=O)cc12`, for which the EC50 is > 80 µM (inactive).

For `COc1cc(OC)cc(C(=O)NC(=S)Nc2cc3oc4ccccc4c3cc2OC)c1`, the EC50 was > 80 µM (inactive).

On to `O=C(Nc1ccc2oc(-c3ccncc3)nc2c1)c1ccc([N+](=O)[O-])o1`, for which the EC50 is > 80 µM (inactive).

With `Cc1ccc(CS(=O)(=O)c2ncc(Cl)c(C(=O)Nc3ccc(OC(F)F)cc3)n2)cc1`, the EC50 is > 80 µM (inactive).

As for `CC(C)(C)C(=O)NC(=S)NNC(=O)c1ccc(-c2ccccc2)cc1`, the EC50 is 9.6 µM.

As for `Cc1ccc(-c2nc(NC(=O)c3nn(C)cc3[N+](=O)[O-])sc2C)cc1C`, the EC50 is > 80 µM (inactive).

For `CC1=NOC(=O)/C1=C\c1ccc(-c2cccc(Cl)c2)o1`, the EC50 is > 80 µM (inactive).

For the molecule `CCc1ccccc1NC(=S)N=Nc1c(O)n(C)c2ccc(S(=O)(=O)N3CCOCC3)cc12`, the EC50 is > 80 µM (inactive).

For the molecule `Oc1ccc(-c2cn3ccccc3n2)cc1O`, the EC50 is > 80 µM (inactive).

As for `Oc1ccc(/C=N/Nc2cc(N3CCCC3)nc(N3CCCC3)n2)cc1O`, the EC50 result is “inactive”.

For the molecule `CCOc1ccc2c(c1)C(=NNC(=O)c1ccncc1)c1cc(OCC)ccc1-2`, the EC50 was > 80 µM (inactive).

On to `CC(C)c1ccc(/C=C(\c2nc3ccccc3[nH]2)S(=O)(=O)c2ccccc2)cc1`, for which the EC50 was > 80 µM (inactive).

`O=C(NCc1cccnc1)/C(=C/c1ccc(-c2ccc(Cl)cc2)o1)S(=O)(=O)c1ccccc1`: the EC50 was > 80 µM (inactive).

Take `Cc1cc(C(=O)CCl)c(C)n1Cc1ccco1`: the EC50 is > 80 µM (inactive).

Take `O=C(NC1CCCC1)C(c1ccc(F)cc1)N(Cc1ccc(F)cc1)C(=O)CCl` (stereo not drawn): the EC50 was > 80 µM (inactive).

In the case of `O=[N+]([O-])c1ccc(C=Nc2ccc(Cl)cc2Cl)s1`, the EC50 was > 80 µM (inactive).

On to `COc1ccc(NC(=O)C(=O)N/N=C\c2ccc(CNC(=O)C(=O)Nc3ccc(C)c(C)c3)o2)c(OC)c1`, for which the EC50 was > 80 µM (inactive).

Turning to `Cc1ccc(NC(=O)Cn2ncc(Cl)c(Cl)c2=O)cc1S(=O)(=O)N1CCCCC1`, the EC50 is > 80 µM (inactive).

Consider `CCOc1ccccc1-n1c(SCC(=O)Nc2ccc(CC)cc2)nc2n[nH]c(C)c2c1=N`, for which the EC50 was 7.99 µM.

As to `Oc1c(CN2CCN(c3ccc(F)cc3)CC2)cc(Cl)c2cccnc12`, the EC50 is > 80 µM (inactive).

In the case of `COc1ccc(-c2csc3nc(-c4ccc(C)cc4)oc(=O)c23)cc1OC`, the EC50 is > 80 µM (inactive).

As to `O=C(CCl)c1ccc(Cc2ncc(C(F)(F)F)cc2Cl)s1`, the EC50 was > 80 µM (inactive).

`Cc1cc(C)nc(SCc2ccc(C(=O)N/N=C/c3cccc(O)c3O)cc2)n1`: the EC50 is > 80 µM (inactive).

Take `Cc1cccc(CS(=O)(=O)c2ncc(Cl)c(C(=O)Nc3ccc(F)cc3)n2)c1`: the EC50 was > 80 µM (inactive).

For `NC(N)=N/N=C/c1ccc(N(c2ccccc2)c2ccccc2)cc1`, the EC50 was > 80 µM (inactive).

Turning to `Cc1cnc(NC(=O)c2cc(S(=O)(=O)N(C)C)ccc2N2CCCC2)s1`, the EC50 is 3.28 µM.

Consider `O=C(Oc1oc(-c2ccco2)nc1C=Nc1ccc(Cl)cc1)c1ccco1`, for which the EC50 is > 80 µM (inactive).

As for `COc1cccc(N=Cc2c(O)c3ccccc3oc2=O)c1`, the EC50 is > 80 µM (inactive).

Regarding `CC1(C)CCSC(/C=C/c2ccccc2)=N1`, the EC50 was > 80 µM (inactive).

Consider `Cc1ccc(C(=O)NC(C#N)=C(Cl)Cl)cc1`, for which the EC50 is > 80 µM (inactive).

For the molecule `CCOC(=O)C(=CNc1nc(-c2ccccc2)c(C(=O)Nc2ccc(-c3ccccc3)cc2)s1)C(=O)OCC`, the EC50 entry was “inactive”.

In the case of `O=C(NCCc1ccccc1)c1coc(=O)c(Br)c1`, the EC50 was > 80 µM (inactive).

In the case of `Cn1nc(C(F)(F)F)c(/C=N/OC(=O)c2ccccc2)c1SCc1ccccc1Cl`, the concentration for a half-maximal effect (EC50) is 6.11 µM.

Take `CC1CCC/C=C/C(=O)c2c(O)cc(O)cc2CC(=O)O1` (stereo not drawn): the EC50 was > 80 µM (inactive).

With `O=S1(=O)Nc2c(ccc3cccnc23)-c2ccccc21`, the EC50 was > 80 µM (inactive).

Consider `S=C(Nc1ccccc1)Nc1nccs1`, for which the EC50 was > 80 µM (inactive).

For `Cc1cc(C)cc(N2C(=O)NC(=O)/C(=C\c3cccn3-c3ccccc3)C2=O)c1`, the EC50 is > 80 µM (inactive).

As to `COCCN1CSC(=S)N(Cc2ccco2)C1`, the EC50 was > 80 µM (inactive).

As to `Cc1c(NC(=O)CSc2cccc3cccnc23)c(=O)n(-c2ccccc2)n1C`, the EC50 was > 80 µM (inactive).

As to `Cc1nc([N+](=O)[O-])c(Br)n1CC(=O)c1ccc(Br)cc1`, the EC50 was > 80 µM (inactive).

Regarding `COC(=O)Oc1ccc(/C=C/C(=O)OC(C)C)cc1OC(=O)OC`, the EC50 is > 80 µM (inactive).

With `O=C(NCc1ccccc1Br)c1cccc2c1C(=O)c1ccc(-c3ccc(OC(F)(F)F)cc3)cc1S2(=O)=O`, the half-maximal effective concentration (EC50) was 17 µM.

For `Oc1ccc(-c2csc(-c3ccccc3)n2)cc1O`, the EC50 is > 80 µM (inactive).

Turning to `CC(=O)/C(=N\Nc1ccc(Cl)cc1Cl)Sc1cccc2cccnc12`, the EC50 was > 80 µM (inactive).

As for `C/C(=N\NC(=O)c1cc2ccccc2cc1O)c1ccccn1`, the EC50 was > 80 µM (inactive).

As for `Oc1cc(-c2ccncc2)cc2cccnc12`, the EC50 was > 80 µM (inactive).

Consider `OCCNc1nc(Nc2ccc(Br)cc2)nc2ccccc12`, for which the EC50 was 5.17 µM.

As to `CN1/C(=C\C(=O)COC(=O)c2ccc(O)c(O)c2)C(C)(C)c2ccccc21`, the EC50 was 9.91 µM.

Turning to `COC(=O)c1cc(=O)n(Cc2ccc3c(c2)OCO3)c(=Nc2ccc(F)c(Cl)c2)s1`, the EC50 was > 80 µM (inactive).

Turning to `O=C1Nc2ccc(Br)cc2/C1=N/N=C/C1=C(N2CCOCC2)C(=C\c2ccccc2)/CC1`, the EC50 was > 80 µM (inactive).

Consider `COc1ccc2c(c1OC)C(=O)OC2Nc1nc(-c2ccccc2)cs1` (stereo not drawn), for which the EC50 is > 80 µM (inactive).

For `CCOC(=O)C1CCN(Cc2ccc(O)c3ncccc23)CC1`, the EC50 was > 80 µM (inactive).

For the molecule `O=C(Nc1ccc(C(F)(F)F)cc1)c1cc(-c2cccnc2)nc2ccc(Br)cc12`, the EC50 is 6.29 µM.

In the case of `O=[N+]([O-])c1ccccc1S(=O)(=O)Nc1cccc2cccnc12`, the EC50 was > 80 µM (inactive).

Turning to `CS(=O)(=O)Oc1ccc2c(c1)O/C(=C\C=C\c1ccccc1)C2=O`, the EC50 was > 80 µM (inactive).

`Cc1cc(C(=O)c2ccc(Cl)cc2)c(NC(=O)CCl)s1`: the EC50 is > 80 µM (inactive).

Regarding `COc1ccc(-c2cc(C(F)(F)F)nc(S(C)(=O)=O)n2)cc1OC`, the EC50 was > 80 µM (inactive).

As for `CCN1CSC(=S)N(Cc2ccccc2)C1`, the EC50 is > 80 µM (inactive).

With `CCOC(=O)/C=c1\s/c(=C\c2ccc3cc(OC)ccc3c2)c(=O)n1CC(=O)NCC1CCCO1` (stereo not drawn), the EC50 was 17.4 µM.

Turning to `CCOc1ccccc1N=Cc1c(O)c2ccccc2oc1=O`, the EC50 was 10.8 µM.

For the molecule `O=C(/C(=C\c1ccccc1)c1nc2ccccc2[nH]1)c1ccc(Cl)cc1`, the EC50 was > 80 µM (inactive).

In the case of `S=C1SCN(CCN2CCOCC2)CN1Cc1ccccc1`, the EC50 was > 80 µM (inactive).

In the case of `C/C(=N\Nc1ncnc2sc(C)c(C)c12)c1ccccn1`, the EC50 entry was “inactive”.

As to `Cc1ccc(C)c(C(=O)Cn2ncc(Cl)c(Cl)c2=O)c1`, the EC50 is > 80 µM (inactive).

`O=C(/C=C1\NC2(CCCC2)Cc2ccccc21)C(=O)N/N=C/c1ccc(O)c(O)c1`: the EC50 was 13.6 µM.

As to `Cn1c(/C=C/c2ccc([N+](=O)[O-])o2)nc2ccccc2c1=O`, the EC50 was > 80 µM (inactive).

For the molecule `c1ccc(-c2nc(N3CCCCCC3)c3ccccc3n2)nc1`, the EC50 was > 80 µM (inactive).

For `COc1ccc(N=Cc2c(O)c3ccccc3oc2=O)cc1`, the half-maximal effective concentration (EC50) is 11.6 µM.

On to `C/C(=N\NC(=O)c1cccc(Br)c1)c1ccccn1`, for which the EC50 is > 80 µM (inactive).

Consider `COc1ccc2c(C(=O)CCl)c[nH]c2c1`, for which the EC50 was > 80 µM (inactive).

Take `COc1ccc(-c2cc(-c3ccccc3)c(C#N)c(S(C)(=O)=O)n2)cc1`: the EC50 was 5.94 µM.

With `COc1ccc(CNC[C@@H](CCCCN(C)Cc2ccc(OC)cc2)N2C[C@H](c3ccccc3)N(CCc3ccc(Cl)c(Cl)c3)C(=O)C2=O)cc1`, the EC50 was > 80 µM (inactive).

Turning to `COc1ccc(NS(=O)(=O)c2ccc3ccccc3c2)c2ncccc12`, the EC50 is > 80 µM (inactive).

`CCOC(=O)C(=Cc1ccc(-n2cncn2)cc1)C(=O)OCC`: the EC50 was > 80 µM (inactive).

With `Cc1ccc(NC(=O)c2ccc([N+](=O)[O-])o2)cc1S(=O)(=O)N1CCOCC1`, the EC50 was > 80 µM (inactive).

On to `CCc1cccc(CC)c1NC(=O)/C(C#N)=C/c1ccccc1C(F)(F)F`, for which the EC50 is > 80 µM (inactive).

Consider `CC(C)(C)C(=O)N1CCN(c2ccc(NC(=O)c3ccc([N+](=O)[O-])o3)cc2)CC1`, for which the EC50 is > 80 µM (inactive).

In the case of `O=C1Nc2ccccc2/C1=C\C(=O)c1ccccc1`, the EC50 is > 80 µM (inactive).

For the molecule `COc1cccc2sc(N3CCN(c4nc5ccccc5s4)CC3)nc12`, the EC50 is 18.7 µM.

For `Cc1ccc2cccc(NS(=O)(=O)c3ccccc3)c2n1`, the EC50 was > 80 µM (inactive).

For the molecule `Cc1cc(C(=O)Cn2ncc(Cl)c(Cl)c2=O)c(C)n1CC(F)(F)F`, the EC50 is > 80 µM (inactive).
